Laboratory results taken from the NIST ThermoML archive (doi:10.1016/j.jct.2017.02.022).
± gives the expanded uncertainty stated by the source.

Experiments:
[1] = xn = mol fraction of the nth substance listed; conditions: 101.3 kPa, Liquid; for speed of sound: Frequency=3 MHz, Sing-around technique in a fixed-path interferometer; for mass density: Vibrating tube method
[2] = refractive index (Na D-line) (dimensionless); xn = mol fraction of the nth substance listed; conditions: 101.3 kPa, Liquid, Standard Abbe refractometry

Question: With `CCn1cc[n+](C)c1.COS(=O)(=O)[O-]` [1-ethyl-3-methylimidazolium methylsulfate] + CCCCCO as the compound, how does the speed of sound ([1]; 298 K, x1 = 0.05) read?
Answer: 1291 ± 20 m/s

Question: And the speed of sound ([1]; 298 K, x1 = 0.284)?
Answer: 1425 ± 20 m/s

Question: What about the speed of sound ([1]; 298 K, x1 = 0.459) of the same compound?
Answer: 1527 ± 20 m/s

Question: What about the speed of sound ([1]; 298 K, x1 = 0.613) of the same compound?
Answer: 1603 ± 20 m/s

Question: And the speed of sound ([1]; 298 K, x1 = 0.768)?
Answer: 1662 ± 20 m/s

Question: And the speed of sound ([1]; 298 K, x1 = 0.922)?
Answer: 1721 ± 20 m/s

Question: And the speed of sound ([1]; 298 K, x1 = 1)?
Answer: 1762 ± 20 m/s

Question: What about the mass density ([1]; 298 K, x1 = 0.05) of the same compound?
Answer: 849 ± 3 kg/m3

Question: What about the mass density ([1]; 298 K, x1 = 0.284) of the same compound?
Answer: 999 ± 2 kg/m3

Question: And the mass density ([1]; 298 K, x1 = 0.459)?
Answer: 1089 ± 2 kg/m3

Question: What about the mass density ([1]; 298 K, x1 = 0.613) of the same compound?
Answer: 1157 ± 2 kg/m3

Question: And the mass density ([1]; 298 K, x1 = 0.768)?
Answer: 1216 ± 2 kg/m3

Question: What about the mass density ([1]; 298 K, x1 = 0.922) of the same compound?
Answer: 1268 ± 2 kg/m3

Question: What about the mass density ([1]; 298 K, x1 = 1) of the same compound?
Answer: 1292 ± 2 kg/m3

Question: And the speed of sound ([1]; 303 K, x1 = 0.05)?
Answer: 1274 ± 20 m/s

Question: What about the speed of sound ([1]; 303 K, x1 = 0.284) of the same compound?
Answer: 1409 ± 20 m/s

Question: What about the speed of sound ([1]; 303 K, x1 = 0.459) of the same compound?
Answer: 1511 ± 20 m/s

Question: And the speed of sound ([1]; 303 K, x1 = 0.613)?
Answer: 1588 ± 20 m/s

Question: What about the speed of sound ([1]; 303 K, x1 = 0.768) of the same compound?
Answer: 1648 ± 20 m/s

Question: And the speed of sound ([1]; 303 K, x1 = 0.922)?
Answer: 1708 ± 20 m/s

Question: And the speed of sound ([1]; 303 K, x1 = 1)?
Answer: 1750 ± 20 m/s

Question: And the mass density ([1]; 303 K, x1 = 0.05)?
Answer: 845 ± 3 kg/m3

Question: And the mass density ([1]; 303 K, x1 = 0.284)?
Answer: 994 ± 2 kg/m3

Question: And the mass density ([1]; 303 K, x1 = 0.459)?
Answer: 1085 ± 2 kg/m3

Question: What about the mass density ([1]; 303 K, x1 = 0.613) of the same compound?
Answer: 1153 ± 2 kg/m3

Question: And the mass density ([1]; 303 K, x1 = 0.768)?
Answer: 1212 ± 2 kg/m3

Question: And the mass density ([1]; 303 K, x1 = 0.922)?
Answer: 1265 ± 2 kg/m3

Question: And the mass density ([1]; 303 K, x1 = 1)?
Answer: 1289 ± 2 kg/m3

Question: What about the speed of sound ([1]; 308 K, x1 = 0.05) of the same compound?
Answer: 1258 ± 20 m/s

Question: And the speed of sound ([1]; 308 K, x1 = 0.284)?
Answer: 1393 ± 20 m/s

Question: What about the speed of sound ([1]; 308 K, x1 = 0.459) of the same compound?
Answer: 1496 ± 20 m/s

Question: And the speed of sound ([1]; 308 K, x1 = 0.613)?
Answer: 1573 ± 20 m/s

Question: And the speed of sound ([1]; 308 K, x1 = 0.768)?
Answer: 1634 ± 20 m/s

Question: And the speed of sound ([1]; 308 K, x1 = 0.922)?
Answer: 1695 ± 20 m/s

Question: What about the speed of sound ([1]; 308 K, x1 = 1) of the same compound?
Answer: 1739 ± 20 m/s

Question: And the mass density ([1]; 308 K, x1 = 0.05)?
Answer: 841 ± 3 kg/m3

Question: And the mass density ([1]; 308 K, x1 = 0.284)?
Answer: 990 ± 2 kg/m3

Question: And the mass density ([1]; 308 K, x1 = 0.459)?
Answer: 1081 ± 2 kg/m3

Question: What about the mass density ([1]; 308 K, x1 = 0.613) of the same compound?
Answer: 1149 ± 2 kg/m3

Question: What about the mass density ([1]; 308 K, x1 = 0.768) of the same compound?
Answer: 1208 ± 2 kg/m3

Question: What about the mass density ([1]; 308 K, x1 = 0.922) of the same compound?
Answer: 1261 ± 2 kg/m3

Question: What about the mass density ([1]; 308 K, x1 = 1) of the same compound?
Answer: 1285 ± 2 kg/m3

Question: What about the speed of sound ([1]; 313 K, x1 = 0.05) of the same compound?
Answer: 1241 ± 20 m/s

Question: And the speed of sound ([1]; 313 K, x1 = 0.284)?
Answer: 1377 ± 20 m/s

Question: And the speed of sound ([1]; 313 K, x1 = 0.459)?
Answer: 1480 ± 20 m/s

Question: And the speed of sound ([1]; 313 K, x1 = 0.613)?
Answer: 1559 ± 20 m/s

Question: What about the speed of sound ([1]; 313 K, x1 = 0.768) of the same compound?
Answer: 1620 ± 20 m/s

Question: What about the speed of sound ([1]; 313 K, x1 = 0.922) of the same compound?
Answer: 1682 ± 20 m/s

Question: What about the speed of sound ([1]; 313 K, x1 = 1) of the same compound?
Answer: 1727 ± 20 m/s

Question: What about the mass density ([1]; 313 K, x1 = 0.05) of the same compound?
Answer: 837 ± 3 kg/m3

Question: And the mass density ([1]; 313 K, x1 = 0.284)?
Answer: 986 ± 2 kg/m3

Question: And the mass density ([1]; 313 K, x1 = 0.459)?
Answer: 1077 ± 2 kg/m3

Question: And the mass density ([1]; 313 K, x1 = 0.613)?
Answer: 1145 ± 2 kg/m3

Question: And the mass density ([1]; 313 K, x1 = 0.768)?
Answer: 1205 ± 2 kg/m3

Question: What about the mass density ([1]; 313 K, x1 = 0.922) of the same compound?
Answer: 1258 ± 2 kg/m3

Question: And the mass density ([1]; 313 K, x1 = 1)?
Answer: 1282 ± 2 kg/m3

Question: And the refractive index ([2]; 298 K, x1 = 0.05)?
Answer: 1.413 ± 0.01

Question: What about the refractive index ([2]; 298 K, x1 = 0.284) of the same compound?
Answer: 1.435 ± 0.01

Question: And the refractive index ([2]; 298 K, x1 = 0.459)?
Answer: 1.448 ± 0.01

Question: And the refractive index ([2]; 298 K, x1 = 0.613)?
Answer: 1.458 ± 0.01

Question: What about the refractive index ([2]; 298 K, x1 = 0.768) of the same compound?
Answer: 1.468 ± 0.01

Question: What about the refractive index ([2]; 298 K, x1 = 0.922) of the same compound?
Answer: 1.476 ± 0.01

Question: What about the refractive index ([2]; 298 K, x1 = 1) of the same compound?
Answer: 1.48 ± 0.01

Question: And the refractive index ([2]; 303 K, x1 = 0.05)?
Answer: 1.412 ± 0.01

Question: What about the refractive index ([2]; 303 K, x1 = 0.284) of the same compound?
Answer: 1.434 ± 0.01

Question: What about the refractive index ([2]; 303 K, x1 = 0.459) of the same compound?
Answer: 1.447 ± 0.01

Question: And the refractive index ([2]; 303 K, x1 = 0.613)?
Answer: 1.457 ± 0.01

Question: What about the refractive index ([2]; 303 K, x1 = 0.768) of the same compound?
Answer: 1.466 ± 0.01

Question: And the refractive index ([2]; 303 K, x1 = 0.922)?
Answer: 1.475 ± 0.01

Question: And the refractive index ([2]; 303 K, x1 = 1)?
Answer: 1.479 ± 0.01

Question: What about the refractive index ([2]; 308 K, x1 = 0.05) of the same compound?
Answer: 1.411 ± 0.01

Question: What about the refractive index ([2]; 308 K, x1 = 0.284) of the same compound?
Answer: 1.432 ± 0.01

Question: What about the refractive index ([2]; 308 K, x1 = 0.459) of the same compound?
Answer: 1.445 ± 0.01

Question: What about the refractive index ([2]; 308 K, x1 = 0.613) of the same compound?
Answer: 1.455 ± 0.01

Question: And the refractive index ([2]; 308 K, x1 = 0.768)?
Answer: 1.465 ± 0.01

Question: What about the refractive index ([2]; 308 K, x1 = 0.922) of the same compound?
Answer: 1.473 ± 0.01

Question: And the refractive index ([2]; 308 K, x1 = 1)?
Answer: 1.478 ± 0.01

Question: What about the refractive index ([2]; 313 K, x1 = 0.05) of the same compound?
Answer: 1.409 ± 0.01

Question: And the refractive index ([2]; 313 K, x1 = 0.284)?
Answer: 1.43 ± 0.01

Question: And the refractive index ([2]; 313 K, x1 = 0.459)?
Answer: 1.443 ± 0.01

Question: What about the refractive index ([2]; 313 K, x1 = 0.613) of the same compound?
Answer: 1.453 ± 0.01

Question: And the refractive index ([2]; 313 K, x1 = 0.768)?
Answer: 1.463 ± 0.01

Question: And the refractive index ([2]; 313 K, x1 = 0.922)?
Answer: 1.472 ± 0.01

Question: What about the refractive index ([2]; 313 K, x1 = 1) of the same compound?
Answer: 1.476 ± 0.01
